The values that follow come from patent US11178870B2 (priority 2017, dated 2021).

Common to all, as to assay type: in vivo
One assay relates to Magnaporthe grisea. Description: whole plant or invertebrate. The note with it: Pyricularia oryzae, in Oryza sativa, read-out: Test A control value.
A further assay deals with Botrytis cinerea. Description: Test Example B: Gray mold on tomato. The note with it: Gray mold on tomato, read-out: Test B control value.
The subject of a further assay is Alternaia brassicicola. The assay is described as follows: Test Example C: Alternaria sooty spot on cabbage. The note with it: Brassica oleracea; Alternaria sooty spot on cabbage; read-out: Test C control value.
Assay [1] relates to Blumeria graminis f. sp. hordei. Description: Test Example D: Powdery mildew on barley. The settings on record: Powdery mildew on barley, read-out: Test D control value.
The test system of the next assay is Puccinia recondita. The assay is described as follows: Test Example E: Brown rust on wheat. The note with it: Brown rust on wheat, read-out: Test E control value.
A further assay has as its system Phytophthora infestans. The assay is described as follows: whole plant or invertebrate. The settings on record: in Solanum lycopersicum, read-out: Test F control value.
The test system of a further assay is Plasmopara viticola. The assay is described as follows: Test Example G: Downy mildew on vine. The note with it: Downy mildew on vine, 250 ppm sprayed, 2.5 ml/pot, 7 to 10 days after inoculation, read-out: Test G control value.

In the case of `CCn1c(-c2c(F)cc(OC)cc2F)c(-c2c(Br)cnn2C)cc(Cl)c1=O` [compound 23, 5-(4-bromo-1-methyl-1H-pyrazol-5-yl)-3-chloro-6-(2,6-difluoro-4-methoxyphenyl)-1-ethylpyridin-2(1H)-one], the pest or weed control at 250 µg/mL in the assay with Magnaporthe grisea is over 50%; with Botrytis cinerea it was over 50%; in the assay on Alternaia brassicicola, over 50%; in assay [1], over 50%; in the assay on Puccinia recondita, over 50%; in the assay on Phytophthora infestans it was under 50%. Further, in the assay on Plasmopara viticola, the pest or weed control at 250 ppm was under 50%.
As to `CCn1c(-c2c(F)cc(F)cc2F)c(-c2cnco2)cc(Cl)c1=O` [compound 36, 3-chloro-1-ethyl-5-(oxazol-5-yl)-6-(2,4,6-trifluorophenyl)pyridin-2(1H)-one], the pest or weed control at 250 µg/mL with Magnaporthe grisea was over 50%; in the assay on Botrytis cinerea, under 50%; with Alternaia brassicicola it was over 50%; in assay [1], under 50%; with Puccinia recondita, over 50%; with Phytophthora infestans, under 50%. Moreover, the pest or weed control at 250 ppm in the assay with Plasmopara viticola is under 50%.
For `CCn1c(-c2c(F)cc(F)cc2F)c(-c2ocnc2Cl)cc(Cl)c1=O` [compound 112, 3-chloro-5-(4-chlorooxazol-5-yl)-1-ethyl-6-(2,4,6-trifluoro-phenyl)pyridin-2(1H)-one], the pest or weed control at 250 µg/mL in the assay on Magnaporthe grisea was over 50%; in the assay with Botrytis cinerea, over 50%; with Alternaia brassicicola it was over 50%; in assay [1], over 50%; with Puccinia recondita it was over 50%; in the assay on Phytophthora infestans, under 50%. Also, the pest or weed control at 250 ppm in the assay with Plasmopara viticola is over 50%.
Consider `CCn1c(-c2c(F)cccc2F)c(-c2ccc(Cl)s2)cc(Cl)c1=O` [compound 7, 3-chloro-5-(5-chlorothiophen-2-yl)-6-(2,6-difluorophenyl)-1-ethylpyridin-2(1H)-one], for which the pest or weed control at 250 µg/mL in the assay with Magnaporthe grisea was over 50%; in the assay with Botrytis cinerea, over 50%; in the assay with Alternaia brassicicola, over 50%; in assay [1], under 50%; in the assay on Puccinia recondita, over 50%; in the assay on Phytophthora infestans it was under 50%. In the assay on Plasmopara viticola, the pest or weed control at 250 ppm was under 50%.
As to `CCn1c(-c2c(F)cc(F)cc2F)c(-n2ncnc2Br)cc(Cl)c1=O` [compound 35, 5-(5-bromo-1H-1,2,4-triazol-1-yl)-3-chloro-1-ethyl-6-(2,4,6-trifluorophenyl)pyridin-2(1H)-one], the pest or weed control at 250 µg/mL was over 50% in the assay with Magnaporthe grisea; over 50% with Botrytis cinerea; over 50% in the assay with Alternaia brassicicola; over 50% in assay [1]; over 50% in the assay on Puccinia recondita; under 50% with Phytophthora infestans. For the same compound, the pest or weed control at 250 ppm in the assay on Plasmopara viticola is under 50%.
Take `CCN1C(=O)CCC(c2cccs2)=C1c1c(F)cccc1F` [compound 2, 6-(2,6-difluorophenyl)-1-ethyl-5-(thiophen-2-yl)-3,4-dihydropyridin-2(1H)-one]: the pest or weed control at 250 µg/mL with Magnaporthe grisea was over 50%; in the assay with Botrytis cinerea, under 50%; with Alternaia brassicicola, under 50%; in assay [1], over 50%; in the assay with Puccinia recondita, over 50%; with Phytophthora infestans it was under 50%. Moreover, the pest or weed control at 250 ppm in the assay with Plasmopara viticola was over 50%.
As for `CCn1c(-c2c(F)cccc2F)c(-c2cccnc2Cl)ccc1=O` [compound 17], the pest or weed control at 250 µg/mL (with Botrytis cinerea; in assay [1]; with Puccinia recondita) was over 50% throughout.
